Assay results published in paper PMC6943417, “Housefly Pupae-Derived Antioxidant Peptides Exerting Neuroprotective Effects on Hydrogen Peroxide-Induced Oxidative Damage in PC12 Cells” (Molecules, 2019).
Where no end group is shown, it is not given here.

Test system: pepsin and pancreatin
Assay type: in vitro ADME
Experimental: The ABTS cation radical scavenging activity assay was conducted according to the manufacture instruction. […] The ABTS cation radical scavenging activity was calculated by the following formula: ABTS cation radical scavenging activity (%) = (1 − A1/A0) × 100%(2) where A1 and A0 were the absorbances of sample group and control group, respectively. The sample solution of control group was replaced with deionized water. Ascorbic acid was used as a positive control.
Thermal stability of synthetic peptides was determined according to the method of Yarnpakdee et al. with minor modifications. The synthetic peptides were respectively incubated at 25, 60, 70, 80, 90 °C for 30 min and then measured their scavenging ability of ABTS cation radical. The ability of synthetic peptides against pH treatments was measured according to Zhu et al.. In brief, pH of peptide solution was adjusted to 1, 3, 5, 7, 9, 11, incubated at room temperature for 1 h, and then ABTS cation radical scavenging activity of the treated peptides was measured. A two-stage digestion of protease in vitro (pepsin-digestion for 1 h and then pancreatin-digestion for 2 h at 37 °C) was performed as described by Zhang et al.. The ABTS cation radical scavenging ability was evaluated to assess the peptides stability against GI digestion.

| change in ABTS radical scavenging ability after simulated GI digestion | Sequence |
| --- | --- |
| no significant change | ARFEELCSDLFR [AR12, Ala-Arg-Phe-Glu-Glu-Leu-Cys-Ser-Asp-Leu-Phe-Arg] |
| slight decrease | DFTPVCTTELGR [DR12, Asp-Phe-Thr-Pro-Val-Cys-Thr-Thr-Glu-Leu-Gly-Arg] |
